Experimental data as given in US11248017B2, “Anti-inflammatory composition including novel kaempferol-based compound derived from post-fermented tea” (AMOREPACIFIC CORPORATION, priority 2017, dated 2022).

Key:
PGE2 (Prostaglandin E2) = experiment: PGE2 production inhibition experiment (ELISA); type: cell-based, Human; conditions: for PGE2: human fibroblasts, 500 μM H2O2 24 h, then test substance (33: 100 μg/ml) 48 h, culture medium
Experimental: (§1) Human fibroblasts (PromoCell, Germany) were seeded into 6-well culture plates at a concentration of 1×10^5 cells and incubated in 37° C., 5% CO2 incubator for 24 hours. After 500 μM of H2O2 was treated in a well and stimulated for 24 hours, the kaempferol3-O-[2-O″-(E)-p-coumaroyl][beta-D-glucopyranosyl-(1-3)-O-alpha-L-rhamnopyranosyl-(1→6)-O-beta-D-glucopyranoside](‘new material 33’) was treated at a concentration of 100 μg/ml each, and was reacted for 48 hours. After completion of the reaction, the culture medium was collected and subjected to ELISA analysis. At this time, α-bisabolol, which is a material frequently used as an anti-inflammation agent and an abirritant, was used as a control. PGE2 used Assay Design's kit and IL-6 and IL-8 used Endogen's kit, and the experiment was conducted according to the method specified in each company's manual. (‘33’ means new material 33) Inhibitory effect={1−(test sample−control)/(H2O2−control)}×100 <Equation 1>

skin = experiment: Skin accumulation stimulation experiment, human repeated insult patch test (HRIPT); type: in vivo; parameters: key to skin reactivity (ICDRG criteria): −: negative (no response); ±: doubtful or slight erythema, etc.; +: weak reaction (which is accompanied with no phlyctenule), erythema, papule; ++: severe reaction (which is accompanied with phlyctenule), erythema, papule, phlyctenule; +++: strong reaction, bullae reaction; conditions: for Average reactivity: 9 patches over 3 weeks, 15 subjects, less than 3 = stable composition
Experimental: Human repeated insult patch tests (HRIPT) were performed to confirm the skin accumulation stimulation of the kaempferol3-O-[2-O″-(E)-p-coumaroyl][beta-D-glucopyranosyl-(1→3)-O-alpha-L-rhamnopyranosyl-(1→6)-O-beta-D-glucopyranoside] and to calculate the concentration range available for the skin.
Specifically, 15 healthy adult subjects were randomly selected, and the test composition (the skin composition including an emulsifier, a stabilizer, purified water, etc. in addition to the compound) containing 0.5 wt %, 1 wt %, and 3 wt % of the compound was added dropwise by 20 μl per chamber (IQ chamber, Epitest Ltd, Finland). After 24 hours from patching the upper right part of the back of a subject, it was replaced with the new patch. A total of 9 patches were conducted, three times a week for total 3 weeks, in such manner, the skin reactions before and after patch were examined every time, and the skin reactions until 48 hours after removing the final patch were observed, and the average reactivity was observed.
The skin response was determined according to the criteria of the International Contact Dermatitis Research Group (ICDRG). ‘New material 33’ in the table above is kaempferol3-O-[2-O″-(E)-p-coumaroyl][beta-D-glucopyranosyl-(1→3)-O-alpha-L-rhamnopyranosyl-(1→6)-O-beta-D-glucopyranoside].

IL-6 (Interleukin 6) = experiment: IL-6 production inhibition experiment (ELISA); type: cell-based, Human; conditions: for IL-6: human fibroblasts, 500 μM H2O2 24 h, then test substance (33: 100 μg/ml) 48 h, culture medium
Experimental: as §1

IL-8 (Interleukin 8) = experiment: IL-8 production inhibition experiment (ELISA); type: cell-based, Human; conditions: for IL-8: human fibroblasts, 500 μM H2O2 24 h, then test substance (33: 100 μg/ml) 48 h, culture medium
Experimental: as §1

C[C@@H]1O[C@@H](OC[C@H]2O[C@@H](Oc3c(-c4ccc(O)cc4)oc4cc(O)cc(O)c4c3=O)[C@H](OC(=O)/C=C/c3ccc(O)cc3)[C@@H](O)[C@@H]2O)[C@H](O)[C@H](O[C@@H]2O[C@H](CO)[C@@H](O)[C@H](O)[C@H]2O)[C@H]1O [new material 33, kaempferol3-O-[2-O″-(E)-p-coumaroyl][beta-D-glucopyranosyl-(1→3)-O-alpha-L-rhamnopyranosyl-(1→6)-O-beta-D-glucopyranoside]]
198 pg/mL: IL-6 (IL-6 (Interleukin 6))
210 pg/mL: IL-8 (IL-8 (Interleukin 8))
82.1%: inhibition at 100 µg/mL (PGE2 (Prostaglandin E2); Homo sapiens, 100 μg/ml, {1−(test sample−control)/(H2O2−control)}×100, control = a-bisabolol, read-out: Inhibitory Effect according to Equation 1, PGE2)
effect of reducing: effect on PGE2 increased by H2O2 (PGE2 (Prostaglandin E2); in words) | effect on IL-6 increased by H2O2 (IL-6 (Interleukin 6); in words) | effect on IL-8 increased by H2O2 (IL-8 (Interleukin 8); in words)
88.9%: inhibition at 100 µg/mL (IL-8 (Interleukin 8); Homo sapiens, 100 μg/ml, {1−(test sample−control)/(H2O2−control)}×100, control = a-bisabolol, read-out: Inhibitory Effect according to Equation 1, IL-8)
no cumulative irritation of the skin: cumulative irritation of the skin (skin; content range 0.5 to 3 wt %, in words)
231 pg/mL: PGE2 (PGE2 (Prostaglandin E2))
−: skin reactivity (ICDRG criteria) (skin; content range 0.5 to 3 wt %, all subjects)
0: Average reactivity (skin; 0.5 wt %) | Average reactivity (skin; 1 wt %) | Average reactivity (skin; 3 wt %)
0 person: Number of subjects with + reactivity (skin; 0.5 wt %, 1st patch) | Number of subjects with ++ reactivity (skin; 0.5 wt %, 1st patch) | Number of subjects with ± reactivity (skin; 0.5 wt %, 1st patch) | Number of subjects with + reactivity (skin; 0.5 wt %, 2nd patch) | Number of subjects with ++ reactivity (skin; 0.5 wt %, 2nd patch) | Number of subjects with ± reactivity (skin; 0.5 wt %, 2nd patch) | Number of subjects with + reactivity (skin; 0.5 wt %, 3rd patch) | Number of subjects with ++ reactivity (skin; 0.5 wt %, 3rd patch) | Number of subjects with ± reactivity (skin; 0.5 wt %, 3rd patch) | Number of subjects with + reactivity (skin; 0.5 wt %, 4th patch) | Number of subjects with ++ reactivity (skin; 0.5 wt %, 4th patch) | Number of subjects with ± reactivity (skin; 0.5 wt %, 4th patch) | Number of subjects with + reactivity (skin; 0.5 wt %, 5th patch) | Number of subjects with ++ reactivity (skin; 0.5 wt %, 5th patch) | Number of subjects with ± reactivity (skin; 0.5 wt %, 5th patch) | Number of subjects with + reactivity (skin; 0.5 wt %, 6th patch) | Number of subjects with ++ reactivity (skin; 0.5 wt %, 6th patch) | Number of subjects with ± reactivity (skin; 0.5 wt %, 6th patch) | Number of subjects with + reactivity (skin; 0.5 wt %, 7th patch) | Number of subjects with ++ reactivity (skin; 0.5 wt %, 7th patch) | Number of subjects with ± reactivity (skin; 0.5 wt %, 7th patch) | Number of subjects with + reactivity (skin; 0.5 wt %, 8th patch) | Number of subjects with ++ reactivity (skin; 0.5 wt %, 8th patch) | Number of subjects with ± reactivity (skin; 0.5 wt %, 8th patch) | Number of subjects with + reactivity (skin; 0.5 wt %, 9th patch) | Number of subjects with ++ reactivity (skin; 0.5 wt %, 9th patch) | Number of subjects with ± reactivity (skin; 0.5 wt %, 9th patch) | Number of subjects with + reactivity (skin; 1 wt %, 1st patch) | Number of subjects with ++ reactivity (skin; 1 wt %, 1st patch) | Number of subjects with ± reactivity (skin; 1 wt %, 1st patch) | Number of subjects with + reactivity (skin; 1 wt %, 2nd patch) | Number of subjects with ++ reactivity (skin; 1 wt %, 2nd patch) | Number of subjects with ± reactivity (skin; 1 wt %, 2nd patch) | Number of subjects with + reactivity (skin; 1 wt %, 3rd patch) | Number of subjects with ++ reactivity (skin; 1 wt %, 3rd patch) | Number of subjects with ± reactivity (skin; 1 wt %, 3rd patch) | Number of subjects with + reactivity (skin; 1 wt %, 4th patch) | Number of subjects with ++ reactivity (skin; 1 wt %, 4th patch) | Number of subjects with ± reactivity (skin; 1 wt %, 4th patch) | Number of subjects with + reactivity (skin; 1 wt %, 5th patch) | Number of subjects with ++ reactivity (skin; 1 wt %, 5th patch) | Number of subjects with ± reactivity (skin; 1 wt %, 5th patch) | Number of subjects with + reactivity (skin; 1 wt %, 6th patch) | Number of subjects with ++ reactivity (skin; 1 wt %, 6th patch) | Number of subjects with ± reactivity (skin; 1 wt %, 6th patch) | Number of subjects with + reactivity (skin; 1 wt %, 7th patch) | Number of subjects with ++ reactivity (skin; 1 wt %, 7th patch) | Number of subjects with ± reactivity (skin; 1 wt %, 7th patch) | Number of subjects with + reactivity (skin; 1 wt %, 8th patch) | Number of subjects with ++ reactivity (skin; 1 wt %, 8th patch) | Number of subjects with ± reactivity (skin; 1 wt %, 8th patch) | Number of subjects with + reactivity (skin; 1 wt %, 9th patch) | Number of subjects with ++ reactivity (skin; 1 wt %, 9th patch) | Number of subjects with ± reactivity (skin; 1 wt %, 9th patch) | Number of subjects with + reactivity (skin; 3 wt %, 1st patch) | Number of subjects with ++ reactivity (skin; 3 wt %, 1st patch) | Number of subjects with ± reactivity (skin; 3 wt %, 1st patch) | Number of subjects with + reactivity (skin; 3 wt %, 2nd patch) | Number of subjects with ++ reactivity (skin; 3 wt %, 2nd patch) | Number of subjects with ± reactivity (skin; 3 wt %, 2nd patch) | Number of subjects with + reactivity (skin; 3 wt %, 3rd patch) | Number of subjects with ++ reactivity (skin; 3 wt %, 3rd patch) | Number of subjects with ± reactivity (skin; 3 wt %, 3rd patch) | Number of subjects with + reactivity (skin; 3 wt %, 4th patch) | Number of subjects with ++ reactivity (skin; 3 wt %, 4th patch) | Number of subjects with ± reactivity (skin; 3 wt %, 4th patch) | Number of subjects with + reactivity (skin; 3 wt %, 5th patch) | Number of subjects with ++ reactivity (skin; 3 wt %, 5th patch) | Number of subjects with ± reactivity (skin; 3 wt %, 5th patch) | Number of subjects with + reactivity (skin; 3 wt %, 6th patch) | Number of subjects with ++ reactivity (skin; 3 wt %, 6th patch) | Number of subjects with ± reactivity (skin; 3 wt %, 6th patch) | Number of subjects with + reactivity (skin; 3 wt %, 7th patch) | Number of subjects with ++ reactivity (skin; 3 wt %, 7th patch) | Number of subjects with ± reactivity (skin; 3 wt %, 7th patch) | Number of subjects with + reactivity (skin; 3 wt %, 8th patch) | Number of subjects with ++ reactivity (skin; 3 wt %, 8th patch) | Number of subjects with ± reactivity (skin; 3 wt %, 8th patch) | Number of subjects with + reactivity (skin; 3 wt %, 9th patch) | Number of subjects with ++ reactivity (skin; 3 wt %, 9th patch) | Number of subjects with ± reactivity (skin; 3 wt %, 9th patch)
72.3%: inhibition at 100 µg/mL (IL-6 (Interleukin 6); Homo sapiens, 100 μg/ml, {1−(test sample−control)/(H2O2−control)}×100, control = a-bisabolol, read-out: Inhibitory Effect according to Equation 1, IL-6)

α-bisabolol [a-bisabolol, reference compound]
180 pg/mL: IL-6 (IL-6 (Interleukin 6))
205 pg/mL: PGE2 (PGE2 (Prostaglandin E2))
200 pg/mL: IL-8 (IL-8 (Interleukin 8))
